Columns and labels:
L540cy xenograft = test: L540cy Hodgkin's lymphoma xenograft model; format: in vivo, SCID mice; details: cAC10 ADC (8 drugs per antibody) from the named Drug Linker compound; for tumor growth delay: single 1 mg/kg dose ip on day 8, tumors ~100 mm^3; for tolerability (weight loss, outward signs of toxicity): single 1 mg/kg dose ip, SCID mice
Description: In vivo xenograft models. All experiments were conducted in concordance with the Animal Care and Use Committee in a facility fully accredited by the Association for Assessment and Accreditation of Laboratory Animal Care. Efficacy experiments were conducted in the L540cy Hodgkin's lymphoma model. Tumor cells, as a cell suspension, were implanted sub-cutaneous in immune-compromised SCID mice. Upon tumor engraftment, mice were randomized to study groups (5 mice per group) when the average tumor volume reached about 100 mm^3. The ADC or controls were dosed once via intraperitoneal injection. Tumor volume as a function of time was determined using the formula (L×W^2)/2. Animals were euthanized when tumor volumes reached 750 mm^3. Mice showing durable regressions were terminated after 10-12 weeks post implant.
[…] chimeric antibody cAC10 were prepared from Drug Linker compounds 5 (MDPr-GlucQ-FK866), 12 (MDPr-GlucQ-6050) and 26 (MDPr-GlucQ-6553) to provide ADCs carrying 8 drugs per antibody. Animals were implanted with tumor cells on day 0. Tumors reached ˜100 mm^3 on day 8, and were then treated with a single 1 mg/kg dose (ip) of ADCs.

purified NAMPT = purified NAMPT (Homo sapiens, UniProt P43490); details: read-out: FP assay (IC50); NAMPT 120 nM, fluorescent probe 30 nM, 4 hours room temp
Ramos = test: CellTiter-Glo cytotoxicity assay, Ramos; format: cell-based; details: Ramos (Burkitt's lymphoma), 96 h
Description: (§1) In vitro cytotoxicity assays: Cells cultured in log-phase growth were seeded for 24 h in 96-well plates containing 150 μL RPMI 1640 supplemented with 20% FBS. Serial dilutions of free drugs or antibody-drug conjugates in cell culture media were prepared at 4× working concentrations; 50 μL of each dilution was added to the 96-well plates. Following addition of ADC, cells were incubated with test articles for 4 d at 37° C. After 96 h, growth inhibition was assessed by CellTiter-Glo™ (Promega, Madison, WI) and luminescence was measured on a plate reader. The IC50 value is defined here as the concentration that results in a 50% reduction in cell growth relative to untreated controls.
(§2) Example 89. Binding and cytoxicity of NAMPTi compounds.
(§3) Karpas 299 (non-Hodgkin's lymphoma), L540cy (Hodgkin's lymphoma), Ramos (Burkitt's lymphoma), HepG2 (hepatocellular carcinoma), Hep3B (hepatocellular carcinoma). NAMPTi compounds of Table 1 have the following structures: […]

L540cy = test: CellTiter-Glo cytotoxicity assay, L540cy; format: cell-based; details: L540cy (Hodgkin's lymphoma), 96 h
Description: as §1, §2, §3

HepG2 = test: CellTiter-Glo cytotoxicity assay, HepG2; format: cell-based; details: HepG2 (hepatocellular carcinoma), 96 h
Description: as §1, §2, §3

purified NAMPT, sequence (P43490 whole entry): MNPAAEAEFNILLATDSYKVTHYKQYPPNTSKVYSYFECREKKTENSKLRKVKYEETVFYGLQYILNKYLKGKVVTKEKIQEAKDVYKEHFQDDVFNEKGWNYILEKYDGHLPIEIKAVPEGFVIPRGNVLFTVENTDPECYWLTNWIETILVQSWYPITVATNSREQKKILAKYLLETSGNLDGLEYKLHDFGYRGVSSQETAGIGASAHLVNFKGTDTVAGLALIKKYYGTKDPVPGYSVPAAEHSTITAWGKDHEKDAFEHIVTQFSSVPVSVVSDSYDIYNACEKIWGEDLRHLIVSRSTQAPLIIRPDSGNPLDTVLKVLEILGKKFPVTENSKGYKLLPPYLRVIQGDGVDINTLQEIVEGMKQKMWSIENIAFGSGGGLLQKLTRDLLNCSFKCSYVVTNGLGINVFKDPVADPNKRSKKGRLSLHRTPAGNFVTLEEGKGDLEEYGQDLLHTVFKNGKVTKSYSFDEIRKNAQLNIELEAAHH

SMILES	tumor growth delay (L540cy xenograft)	tolerability (weight loss, outward signs of toxicity) (L540cy xenograft)	IC50 (purified NAMPT) [nM]	IC50 (Ramos) [nM]	IC50 (L540cy) [nM]	IC50 (HepG2) [nM]
NC[C@@H](C(=O)NCCC(=O)Nc1cc(C[n+]2cccc(/C=C/C(=O)NCCCCC3CCN(C(=O)c4cccc(N)c4)CC3)c2)ccc1O[C@@H]1O[C@H](C(=O)O)[C@@H](O)[C@H](O)[C@H]1O)N1C(=O)C=CC1=O [Compound 12, 1-(3-(3-((S)-3-ammonio-2-(2,5-dioxo-2,5-dihydro-1H-pyrrol-1-yl)propanamido)propanamido)-4-(((2S,3R,4S,5S,6S)-6-carboxy-3,4,5-trihydroxytetrahydro-2H-pyran-2-yl)oxy)benzyl)-3-((E)-3-((4-(1-(3-ammoniobenzoyl)piperidin-4-yl)butyl)amino)-3-oxoprop-1-en-1-yl)pyridin-1-ium 2,2,2-trifluoroacetate]	varying levels of tumor growth delay	well-tolerated, with no weight loss or outward signs of toxicity observed	–	–	–	–
CN(CC1(CO)CCCC1)C(=O)CCCCCCCN/C(=N\C#N)Nc1cc[n+](Cc2ccc(O[C@@H]3O[C@H](C(=O)O)[C@@H](O)[C@H](O)[C@H]3O)c(NC(=O)CCNC(=O)CCN3C(=O)C=CC3=O)c2)cc1 [Compound 26, 1-(4-(((2S,3R,4S,5S,6S)-6-carboxy-3,4,5-trihydroxytetrahydro-2H-pyran-2-yl)oxy)-3-(3-(3-(2,5-dioxo-2,5-dihydro-1H-pyrrol-1-yl)propanamido)-propanamido)benzyl)-4-((E)-2-cyano-3-(8-(((1-(hydroxymethyl)cyclopentyl)methyl)-(methyl)amino)-8-oxooctyl)guanidino)pyridin-1-ium 2,2,2-trifluoroacetate]	varying levels of tumor growth delay	well-tolerated, with no weight loss or outward signs of toxicity observed	–	–	–	–
NCCC(=O)Nc1cc(C[n+]2ccn3cc(C(=O)NCc4ccc(S(=O)(=O)c5cc(F)cc(F)c5)cc4)ccc32)ccc1O[C@@H]1O[C@H](C(=O)O)[C@@H](O)[C@H](O)[C@H]1O [Compound 28, 1-(3-(3-ammoniopropanamido)-4-(((2S,3R,4S,5S,6S)-6-carboxy-3,4,5-trihydroxytetrahydro-2H-pyran-2-yl)oxy)benzyl)-6-((4-((3,5-difluorophenyl)-sulfonyl)benzyl)carbamoyl)imidazo[1,2-a]pyridin-1-ium 2,2,2-trifluoroacetate]	–	–	47	1	8.5	8
NC[C@@H](C(=O)NCCC(=O)Nc1cc(C[n+]2cccc(/C=C/C(=O)NCCCCC3CCN(C(=O)c4ccccc4)CC3)c2)ccc1O[C@@H]1O[C@H](C(=O)O)[C@@H](O)[C@H](O)[C@H]1O)N1C(=O)C=CC1=O [Compound 5, 1-(3-(3-((S)-3-amino-2-(2,5-dioxo-2,5-dihydro-1H-pyrrol-1-yl)propanamido)propanamido)-4-(((2S, 3R, 4S, 5S, 6S)-6-carboxy-3,4,5-trihydroxy-tetrahydro-2H-pyran-2-yl)oxy)benzyl)-3-((E)-3-((4-(1-benzoylpiperidin-4-yl)butyl)amino)-3-oxoprop-1-en-1-yl)pyridin-1-ium 2,2,2-trifluoroacetate]	varying levels of tumor growth delay	well-tolerated, with no weight loss or outward signs of toxicity observed	–	–	–	–
CC(C)(C)OC(=O)NC[C@@H](C(=O)NCCC(=O)Nc1cc(C[n+]2ccn3cc(C(=O)NCc4ccc(S(=O)(=O)c5cc(F)cc(F)c5)cc4)ccc32)ccc1O[C@@H]1O[C@H](C(=O)O)[C@@H](O)[C@H](O)[C@H]1O)N1C(=O)C=CC1=O [Compound 29, 1-(3-(3-((S)-3-((tert-butoxycarbonyl)amino)-2-(2,5-dioxo-2,5-dihydro-1H-pyrrol-1-yl)propanamido)propanamido)-4-(((2S,3R,4S,5S,6S)-6-carboxy-3,4,5-trihydroxytetrahydro-2H-pyran-2-yl)oxy)benzyl)-6-((4-((3,5-difluorophenyl)-sulfonyl)benzyl)carbamoyl)imidazo[1,2-a]pyridin-1-ium 2,2,2-trifluoroacetate]	–	–	36	0.71	0.78	1.08

Source: patent publication US20240293554A1, “QUATERNIZED NICOTINAMIDE ADENINE DINUCLEOTIDE SALVAGE PATHWAY INHIBITOR CONJUGATES” (priority 2017, published 2024)
